Values quoted from earlier work in patent US5607691A, “Compositions and methods for enhanced drug delivery” (priority 1995, dated 1997).

Columns and labels:
[1] = in vivo; cited from earlier work
[2] = in vivo; cited from earlier work; remark: listed apart in the source
[3] = in animals; cited from earlier work
[4] = given intravenously or intramuscularly; cited from earlier work
[5] = man, incomplete and variable, averaging; cited from earlier work
[6] = human or mouse skin; cited from earlier work

## C[C@H]1O[C@@H](O[C@H]2[C@@H](O)C[C@H](O[C@H]3[C@@H](O)C[C@H](O[C@H]4CC[C@@]5(C)[C@H](CC[C@@H]6[C@@H]5CC[C@]5(C)[C@@H](C7=CC(=O)OC7)CC[C@]65O)C4)O[C@@H]3C)O[C@@H]2C)C[C@H](O)[C@@H]1O [digitoxin, 3β,5β-3-[(O-2,6-dideoxy-β-D-ribo-hexopyranosyl(1→4)-O-2,6-dideoxy-β-D-ribo-hexopyranosyl-(1→4)-2,6-dideoxy-β-D-ribohexopyranosyl)oxy]-14-hydroxycard-20(22)-enolide]
[1]
  absorption: completely absorbed

## O=c1[nH]cc(F)c(=O)[nH]1 [fluorouracil, 5-fluoro-2,4 (1H,3H)-pyrimidinedione]
[2]
  passage across blood-brain barrier and placenta: diffuses readily across the blood-brain barrier

## O=C1Nc2ccc(Cl)cc2C(c2ccccc2Cl)=NC1O[C@@H]1O[C@H](C(=O)O)[C@@H](O)[C@H](O)[C@H]1O (stereo partly drawn) [lorazepam glucuronide]
[3]
  central nervous system activity: no demonstrable central nervous system activity

## O=C1Nc2ccc(Cl)cc2C(c2ccccc2Cl)=NC1O (stereo not drawn) [lorazepam, 7-chloro-5-(o-chlorophenyl)-1,3-dihydro-3-hydroxy-2H-1,4-benzodiazepin-2-one]
[4]
  mean half-life: about 16 hours

## O.Sc1ncnc2nc[nH]c12 [mercaptopurine, 1,7-dihydro-6H-purine-6-thione monohydrate]
[5]
  absorption of an oral dose: approximately 50 % of the administered dose

## Cytochrome c
[6]
  iontophoretic transport across skin: can be iontophoretically transported readily across human or mouse skin
